Test results: US20230312651A1, “Cyclic Peptide, Peptide Complex, and Drug Composition Containing Said Cyclic Peptide and/or Said Peptide Complex” (The University of Tokyo, priority 2020, published 2023)
Entries after “also recorded” stand apart in the source; their conditions may differ. Values belong to the compound of their own block, whether it stands above or below them. Starred links: 1 amine or outer side, 2 acyl side, 3 side chain; linkers in the order of their positions; H or OH if unused. Positions of bridges follow the written chain, without caps; N, C: chain ends. Non-standard residues stand in square brackets, D forms with d. Residues, ends and D or L forms follow the SMILES beside them. Chains are numbered I, II in the order given. NH(CH2CH2O)6CH2CO = O=C(COCCOCCOCCOCCOCCOCCN[*:1])[*:2]; Dap = NC[C@H](N)C(=O)O

Tests used:
[1] = target: extracellular domain of hTrkA (Homo sapiens, UniProt P04629); assay: SPR binding kinetics (Biacore T200), hTrkA; parameters: the extracellular domain of hTrkA, hTrkC, and hTrkB; conditions: 1:1 binding model
Experimental: (§1) With respect to the binding kinetics (binding affinity (dissociation constant) KD) of the cyclic peptides towards the extracellular domain of hTrkA, hTrkC, and hTrkB (which will hereinafter be called “hTrkA-C proteins”, collectively) immobilized on a sensor chip via a His6-tag, quantitative measurements making use of surface plasmon resonance (SPR) were carried out to evaluate the binding intensity and selectivity of the cyclic peptide to hTrkB, compared with that to hTrkA and hTrkC.
(§2) The binding kinetics of each peptide towards the hTrkA-C proteins were determined using Biacore T200 (GE Healthcare). The buffer used was HBS-P+ (10 mM HEPES, 150 mM NaCl, and 0.05 vol% surfactant P20, pH 7.4) containing 0.1 vol% DMSO and 1 mM b-dodecyl-maltoside. 100 nM hTrkA-C proteins were immobilized on a Ni^2+ treated NTA chip in accordance with the manufacturer’s instructions (baseline response 1000 to 3000 refraction units). Peptides were injected as an analyte at a flow rate of […] and binding kinetics was modelled using a 1:1 binding model.

Akt = assay: Western blot of phosphorylated Akt (S473) in primary hippocampal neurons; assay type: cell-based, mouse; conditions: 1 nM, 15 minutes, primary hippocampal neurons (DIV6); p<0.01 vs DMSO
Experimental: (§3) After washing with 0.1 M PBS twice, cells were lysed in a radio-immunoprecipitation assay (RIPA) buffer containing 50 mM Tris-HCI (pH 7.4), 150 mM NaCl, 2 mM EDTA, 1% Nonidet P-40, 0.5% Na-deoxycholate, 0.1% SDS, 50 mM NaF, 0.2 mM Na3VO4, 10 µg/mL aprotinin, 10 µg/mL leupeptin, and 1 mM phenylmethylsulfonyl fluoride on ice for 30 minutes. After ultrasonic treatment and centrifugation at 20,000 ×g for 30 minutes, the supernatant was subjected to SDS-PAGE. Protein amount was quantified using Bicinchoninic Acid Kit (BCA-1, Sigma).
(§4) The cell lysate (protein amount: 20 µg in P-TrkB, 10 µg in TrkB, and 5 µg in Akt and Erk) was separated using 8% polyacrylamide gel and transferred to a polyvinylidene difluoride membrane (Merck Millipore, Massachusetts, USA). […]
(§5) Finally, after the resulting membrane was washed with TBST, an immune-positive bands were detected by a chemiluminescence method using a Luminata Crescendo HPR substrate (Merck Millipore). The relative phosphorylation level of each kinase was calculated as a ratio of phosphorylated kinase/all kinases.

Erk½ = assay: Western blot of phosphorylated Erk½ in primary hippocampal neurons; assay type: cell-based, mouse; conditions: 1 nM, 15 minutes, primary hippocampal neurons (DIV6); p<0.01 vs DMSO
Experimental: as §3, §4, §5

[2] = target: T1, extracellular domain of hTrkC (Homo sapiens, UniProt Q16288); assay: SPR binding kinetics (Biacore T200), hTrkC; conditions: 1:1 binding model
T1 construct: the extracellular domain of hTrkA, hTrkC, and hTrkB
T1 sequence (Q16288 32-429 limits assumed): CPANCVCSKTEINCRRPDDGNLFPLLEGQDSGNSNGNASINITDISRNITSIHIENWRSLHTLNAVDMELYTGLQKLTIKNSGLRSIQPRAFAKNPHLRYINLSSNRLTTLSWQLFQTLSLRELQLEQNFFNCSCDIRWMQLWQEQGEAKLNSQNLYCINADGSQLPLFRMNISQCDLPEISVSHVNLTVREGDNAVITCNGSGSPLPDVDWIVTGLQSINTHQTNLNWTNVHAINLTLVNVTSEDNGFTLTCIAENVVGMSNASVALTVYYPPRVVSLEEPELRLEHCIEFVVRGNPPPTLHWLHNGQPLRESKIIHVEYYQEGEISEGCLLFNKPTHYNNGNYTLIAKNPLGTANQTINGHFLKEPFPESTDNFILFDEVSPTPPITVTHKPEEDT
Experimental: as §1, §2

[3] = test system: primary hippocampal neurons; assay: Immunocytochemistry for evaluation of axonal outgrowth; assay type: cell-based; conditions: for axonal outgrowth: p<0.01 vs DMSO
Experimental: The cells were washed twice with 0.1 M phosphate-buffered physiological saline (PBS) and immobilized for 15 minutes with 2% paraformaldehyde (PFA)/4% sucrose (in 0.1 M PBS). After washing three times with PBS, the cells were subjected to permeabilization for 3 minutes with PBS (P\BST) containing 0.2% Triton-X and incubated for one hour with a blocking solution (PBST containing 5% normal goat serum) to prevent non-specific binding. Then, the cells were incubated overnight at 4° C. with a primary antibody diluted with the blocking solution (rabbit anti-Tau polyclonal antibody, 1:1,000 dilution; cat#ab64193 (abcam); mouse anti-MAP2 monoclonal antibody, 1:1,000 dilution, M4403 (Sigma)). After washing of the cells with PBST for 10 minutes was performed four times, they were incubated at room temperature for 2 hours with a fluorescently-labeled secondary antibody diluted with the block solution (Alexa Fluor 488-labeled goat anti-mouse IgG antibody, 1:1,000 dilution, A-11029; Alexa Fluor 568-labeled goat anti-rabbit IgG antibody, 1:1,000 dilution, A-21069 (Thermo Fisher Scientific)).
Next, after washing of the cells with PBST for 10 minutes was performed four times, they were mounted with […] containing DAPI (H-1200 (Vector Laboratories)) and an image was obtained using a Virtual Slide microscope system (VS120 (Olympus)) having a x20 objective lens. The images were analyzed using a neuron J plugin in Image J software and the neurite length tracing and quantification were performed (Meijering, E.; Jacob, M.; Sarria, J. C.; Steiner, P.; Hirling, H.; Unser, M., Design and validation of a tool for neurite tracing and analysis in fluorescence microscopy images. Cytometry A 2004, 58 (2), 167-76.).

[4] = test system: 40 RTKs (receptor tyrosine kinases); assay: Phospho-RTK array evaluation (off-target activity); assay type: cell-based, mouse; conditions: primary hippocampal neurons (DIV6)
Experimental: Comprehensive study of the phosphorylated tyrosine kinase receptor was conducted using a phospho-RTK array in accordance with the manufacturer’s protocol (Proteome Profiler mouse Phospho-RTK Array Kit, ARY014, R&D Systems). The phosphorylation level was evaluated by pixel density and quantified by Image J Software.

c-fos = assay: qRT-PCR of c-fos mRNA in primary cortical neurons; assay type: cell-based; conditions: 1 nM, one hour, primary cortical neurons (DIV6); p<0.01
Experimental: (§6) The total RNA was quantitatively and qualitatively verified by a NanoDrop spectrometer (Thermo Fisher Scientific) and electrophoresis in a formaldehyde gel.
(§7) Next, 500 ng of the total RNA was reverse-transcribed using Super Script II (Thermo Fisher Scientific). Quantitative PCR was carried out using a SYBR Green real-time PCR system by the previously reported method (Akashi, M.; Takumi, T., The orphan nuclear receptor RORalpha regulates circadian transcription of the mammalian core-clock Bmal1. Nat Struct Mol Biol 2005, 12 (5), 441-8.). A Gapdh gene was used as an internal control. The following primer sequences were respectively used: Gapdh (Forward: 5′-[…]-3′ and reverse: 5′-[…]-3′) (represented by SEQ ID NOS: 14 and 15, respectively), c-fos (Forward: 5′-[…]-3′ and reverse: 5′-[…]-3′) (represented by SEQ ID NOS: 16 and 17, respectively), and Arc (Forward: 5′-[…]-3′ and reverse: 5′-[…]-3′)(represented by SEQ ID NOS: 18 and 19, respectively).

mouse TrkB = target: T2, mouse TrkB (Mus musculus, UniProt P15209); assay: Western blot of phosphorylated Trk in primary mouse hippocampal neurons; assay type: cell-based
T2 construct: induce phosphorylation of mouse TrkB in primary mouse hippocampal neurons; endogenous in cells; host or cells: primary mouse hippocampal neurons (DIV6)
T2 sequence (P15209 32-821): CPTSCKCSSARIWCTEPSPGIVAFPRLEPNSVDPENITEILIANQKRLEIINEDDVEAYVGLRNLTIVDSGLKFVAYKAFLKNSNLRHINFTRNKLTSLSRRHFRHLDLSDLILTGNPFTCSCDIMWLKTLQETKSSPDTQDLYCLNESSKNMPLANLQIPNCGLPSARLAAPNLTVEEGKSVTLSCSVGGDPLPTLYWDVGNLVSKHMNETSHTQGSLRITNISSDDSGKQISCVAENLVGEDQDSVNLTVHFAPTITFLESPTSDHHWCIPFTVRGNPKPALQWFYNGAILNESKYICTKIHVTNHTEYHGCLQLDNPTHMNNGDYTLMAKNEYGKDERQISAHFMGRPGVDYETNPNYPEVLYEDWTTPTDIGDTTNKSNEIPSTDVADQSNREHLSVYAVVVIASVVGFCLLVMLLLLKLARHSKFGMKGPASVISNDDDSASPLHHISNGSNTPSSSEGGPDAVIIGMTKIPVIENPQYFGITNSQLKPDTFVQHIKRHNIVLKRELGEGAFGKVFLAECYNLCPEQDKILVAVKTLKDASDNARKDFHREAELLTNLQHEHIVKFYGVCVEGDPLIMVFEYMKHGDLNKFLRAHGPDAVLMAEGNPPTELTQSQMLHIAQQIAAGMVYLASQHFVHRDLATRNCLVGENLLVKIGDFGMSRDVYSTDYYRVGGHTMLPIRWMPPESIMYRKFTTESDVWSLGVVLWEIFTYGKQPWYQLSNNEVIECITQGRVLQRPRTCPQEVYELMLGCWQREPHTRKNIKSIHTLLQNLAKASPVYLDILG
Experimental: as §3
The cell lysate (protein amount: 20 µg in P-TrkB, 10 µg in TrkB, and 5 µg in Akt and Erk) was separated using 8% polyacrylamide gel and transferred to a polyvinylidene difluoride membrane (Merck Millipore, Massachusetts, USA). The resulting membrane was blocked for 1 hour with a blocking buffer (5% bovine serum albumin (BSA) tris-buffered physiological saline (TBST) containing 0.05% tween-20), followed by incubation overnight at 4° C. in a blocking buffer containing a primary antibody (rabbit anti-TrkB antibody, 1:1,000 dilution, Cat#4603; rabbit anti-phosphorylated Trk antibody, 1:1,000 dilution, Cat#9141; mouse anti-pan-Akt antibody, 1:2,000 dilution, Cat#2920; rabbit anti-phosphorylated Akt (S473) antibody, 1:2,000 dilution, Cat#4060; rabbit anti-Erk½ antibody, 1:2,000 dilution, Cat#4695; mouse anti-phosphorylated Erk½ antibody, 1:2,000 dilution, Cat#9106 (Cell Signaling Technology)). After washing with TBST for 10 minutes four times, the membrane was incubated with a secondary antibody (peroxidase-conjugated goat anti-rabbit IgG antibody, 1:10,000 dilution, Cat#111-035-003 (Jackson Immuno Research); peroxidase-conjugated sheep anti-mouse IgG antibody, 1:10,000 dilution, Cat#NA9310 (GE Healthcare)) for one hour at room temperature.
as §5, with “kinases. […]” for “kinases.”

Arc = assay: qRT-PCR of Arc mRNA in primary cortical neurons; assay type: cell-based; conditions: 1 nM, one hour, primary cortical neurons (DIV6); p<0.01
Experimental: as §6, §7

[5] = target: T3, extracellular domain of hTrkB (Homo sapiens, UniProt Q16620); assay: SPR binding kinetics (Biacore T200), hTrkB; conditions: Monomer (cyclic peptide), 1:1 binding model, 1 to 1000 nM, read-out: binding affinity KD, TrkB
T3 construct: the extracellular domain of hTrkA, hTrkC, and hTrkB
Experimental: as §1, §2

TrkB = TrkB (Homo sapiens, UniProt Q16620); conditions: Non-Patent Document 3; cited from earlier work
TrkB, sequence (Q16620 32-822, species assumed): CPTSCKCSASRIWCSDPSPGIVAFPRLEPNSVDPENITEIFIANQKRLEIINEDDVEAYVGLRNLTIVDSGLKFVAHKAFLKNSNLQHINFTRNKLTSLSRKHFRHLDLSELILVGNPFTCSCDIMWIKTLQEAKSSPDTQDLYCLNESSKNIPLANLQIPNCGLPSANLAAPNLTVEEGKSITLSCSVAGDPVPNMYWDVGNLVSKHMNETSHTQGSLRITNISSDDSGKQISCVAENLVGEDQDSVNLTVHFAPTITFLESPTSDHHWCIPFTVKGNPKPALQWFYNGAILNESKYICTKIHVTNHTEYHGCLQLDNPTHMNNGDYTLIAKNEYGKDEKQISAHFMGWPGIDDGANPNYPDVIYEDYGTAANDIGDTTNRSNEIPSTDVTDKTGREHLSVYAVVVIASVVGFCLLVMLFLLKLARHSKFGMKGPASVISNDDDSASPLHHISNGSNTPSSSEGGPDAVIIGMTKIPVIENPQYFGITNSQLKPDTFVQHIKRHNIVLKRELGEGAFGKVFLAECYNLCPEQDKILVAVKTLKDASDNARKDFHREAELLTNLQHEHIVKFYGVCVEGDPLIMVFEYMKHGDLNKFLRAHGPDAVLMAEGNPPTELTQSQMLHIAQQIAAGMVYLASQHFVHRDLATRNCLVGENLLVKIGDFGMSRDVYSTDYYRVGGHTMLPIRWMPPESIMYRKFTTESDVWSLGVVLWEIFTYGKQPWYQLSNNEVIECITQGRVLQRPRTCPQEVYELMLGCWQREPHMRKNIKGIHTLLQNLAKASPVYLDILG

Compound: CC(C)C[C@@H]1NC(=O)[C@H](Cc2ccc(O)cc2)NC(=O)CSC[C@@H](C(=O)NCC(=O)N[C@@H](CO)C(=O)NCC(=O)N[C@@H](CO)C(=O)NCC(=O)N[C@@H](CO)C(=O)NCCOCCOCCOCCOCCOCCOCC(=O)NC[C@H](NC(=O)COCCOCCOCCOCCOCCOCCNC(=O)[C@H](CO)NC(=O)CNC(=O)[C@H](CO)NC(=O)CNC(=O)[C@H](CO)NC(=O)CNC(=O)[C@@H]2CSCC(=O)N[C@@H](Cc3ccc(O)cc3)C(=O)N[C@@H](CC(C)C)C(=O)N[C@@H](CCCNC(=N)N)C(=O)N3CCC[C@H]3C(=O)N[C@@H](CCCNC(=N)N)C(=O)N[C@@H](Cc3ccc(O)cc3)C(=O)N[C@@H](CCCCN)C(=O)N[C@@H](Cc3ccccc3)C(=O)N[C@@H](Cc3c[nH]c4ccccc34)C(=O)N2)C(N)=O)NC(=O)[C@H](Cc2c[nH]c3ccccc23)NC(=O)[C@H](Cc2ccccc2)NC(=O)[C@H](CCCCN)NC(=O)[C@H](Cc2ccc(O)cc2)NC(=O)[C@H](CCCNC(=N)N)NC(=O)[C@@H]2CCCN2C(=O)[C@H](CCCNC(=N)N)NC1=O [DiTrbL3] (I: {CH2CO}-YLRPRYKFWCGSGSGS[NH(CH2CH2O)6CH2CO][Dap]-NH2 / II: {CH2CO}-YLRPRYKFWCGSGSGS[NH(CH2CH2O)6CH2CO]; amide I:18-II:C; thioether I:N-I:10, II:N-II:10)
binding affinity KD, TrkA ([1]; Homodimer (peptide complex)): N.B. | phosphorylation of Akt (Akt): drastically activated phosphorylation; also recorded: a significant difference is present in induction between DMSO and DiTrbL3 | phosphorylation of Erk½ (Erk½): drastically activated phosphorylation; also recorded: a significant difference is present in induction between DMSO and DiTrbL3 | binding affinity KD, TrkC ([2]; Homodimer (peptide complex)): N.B. | axonal outgrowth ([3]; 10 nM, DIV0 to 3): significantly reinforced the axonal outgrowth | axonal outgrowth ([3]; 100 nM, DIV0 to 3): significantly reinforced the axonal outgrowth | axonal length of primary neurons ([3]; treated for 3 days (DIV0 to 3)): elongated | RTK phosphorylation in phospho-RTK array ([4]; 1 nM, 40 RTKs): phosphorylated only TrkB | mRNA expression of c-fos (c-fos): significantly increased | TrkB phosphorylation, dose titration (mouse TrkB; 0.2 nM, p<0.01 vs DMSO): obviously induces TrkB phosphorylation | phosphorylation of TrkB (mouse TrkB; 1 nM, 15 minutes, primary mouse hippocampal neurons (DIV6)): induced phosphorylation of TrkB | mRNA expression of Arc (Arc): significantly increased

Compound: CC(C)C[C@@H]1NC(=O)[C@H](CCCNC(=N)N)NC(=O)[C@H](Cc2ccccc2)NC(=O)[C@H](CCCNC(=N)N)NC(=O)[C@@H]2CCCN2C(=O)[C@H]([C@@H](C)O)NC(=O)[C@H](CCC(N)=O)NC(=O)[C@H](Cc2c[nH]c3ccccc23)NC(=O)[C@H](Cc2ccccc2)NC(=O)[C@H](CCCNC(=N)N)NC(=O)[C@H](Cc2ccc(O)cc2)NC(=O)CSC[C@@H](C(=O)NCC(=O)N[C@@H](CO)C(=O)NCC(=O)N[C@@H](CO)C(=O)NCC(=O)N[C@@H](CO)C(N)=O)NC1=O [TrbL2] ({CH2CO}-YRFWQTPRFRLCGSGSGS-NH2; thioether N-12)
Kd ([1]; Monomer (cyclic peptide), 1 to 1000 nM, read-out: binding affinity KD, TrkA): 0.1 µM | binding affinity KD, TrkC ([2]; Monomer (cyclic peptide), 1 to 1000 nM): N.B. | Kd [5]: 0.07 µM

RTK phosphorylation in phospho-RTK array ([4]; 0.1 nM, incubation for one hour as printed): caused phosphorylation of TrkB | phosphorylation of Trk (mouse TrkB; 0.1 nM, 15 minutes, primary mouse hippocampal neurons (DIV6)): induced phosphorylation of Trk
Compound: BDNF: brain-derived neurotrophic factor, natural protein agonist of TrkB, positive control
axonal length of primary neurons ([3]; 2 nM BDNF, DIV0 to 3): elongated | affinity for TrkB relative to that of p75 (TrkB): at least 10 times
